Experimental data published in publication PMC8780785 (Molecules, 2022).
Converted amounts (≈) assume the structure as drawn.

Tests used:
[1] = test system: human normal colon epithelial cell line CCD-841 CoTr; assay: Cytotoxicity, LDH assay, colon epithelial cells; format: cell-based; settings: after 24 h
Protocol: (§1) Cell cultures: The research was conducted on human normal colon epithelial cell line CCD-841 CoTr (ACCT, No. CRL-1807) and human normal colon fibroblast cell line CCD-18Co (ATCC, No. CRL-1459) obtained from the American Type Culture Collection (ATCC, Manassas, VA, USA). The cells were grown in a mixture of DMEM and RPMI 1640 media (1:1) containing 10% (v/v) of foetal bovine serum (FBS) and antibiotics (100 U/mL penicillin and 100 μg/mL streptomycin) and kept in standard conditions (at 37 °C in humidified atmosphere of 5% CO2). For the MTT and LDH tests, cells at the density of 1 × 10^5 cells /mL were seeded on 96-well plates. […] Lactate dehydrogenase(LDH) assay: This assay measures lactate dehydrogenase (LDH) released to the medium by cells with a damaged plasma membrane. […] Absorbance was recorded on a microplate reader (Spark, Tecan, Austria) at 490 nm with a reference wavelength at 690 nm. Results obtained from three independent experiments were reported as cell viability (%) calculated according to the formula: cell viability (%) = (100 − Abssample × Abscontrol^−1) × 100% All analyses were performed in triplicate and presented as mean ± SD. The IC50 value was calculated by nonlinear regression using a curve fitting program in GraphPad Prism 5.0.

[2] = Antioxidative potential over the three methods (ABTS, DPPH, luminol); settings: range depending on the method used
Protocol: Chemiluminescence Assay: The assay of the antioxidant properties of the tested dyes was based on the measurement of luminol chemiluminescence induced by hydroxyl radicals in the Fe^2+-EDTA-H2O2-luminol system. […] Afterwards, the samples were placed in a Berthold–Lumat LB 9506 luminometer, and the solutions of reagents were added automatically as follows: 1.5 mM Fe^2+-EDTA (100 µL) and 4.4 mM H2O2 (100 µL). The chemiluminescence was measured with (I1) or without (I0) the addition of the tested dye. The inhibitory rate (IR) was calculated according to the following equation: IR(%)=(1−I1/Io)×100 DPPH assay: […] […] The change in absorbance caused by the tested dyes (XP) and ultrapure water as a negative control (XC) was monitored at 515 nm using a multiplate reader (Spark, Tecan, Austria). Simultaneously, the absorbance of the dye at a wavelength of 515 nm was investigated as a control of the dye–colour correction (XD). The radical reduction rate (DR) was calculated according to the following equation: DR(%)=(XC−(XP−XD)/XC)×100% ABTS assay: In this method, the ability of the tested dye to reduce the dark green ABTS radical cation (ABTS^●+) was evaluated. […] Next, the ABTS^●+ solution was diluted with PBS to an absorbance of 0.7 at 734 nm measured using a Tecan plate reader (Spark, Tecan, Austria). […]

Vibrio fisheri = assay: Environmental toxicity, 81.9% Basic Test Microtox protocol; format: cell-based; settings: 5 min
Source text: Toxicity was expressed as half maximal effective concentration (EC50) according to the 81.9% Basic Test Microtox protocol. All reagents and Vibrio […] bacterium were purchased from […]), the Polish representative of Modern Water Company (New Castle, DE, USA).

ABTS assay (antioxidant) = settings: concentration reducing 50% of radicals
Protocol: ABTS assay: In this method, the ability of the tested dye to reduce the dark green ABTS radical cation (ABTS^●+) was evaluated. First, 5 mM phosphate buffer pH 7.4 (PBS) and 7.4 mM ABTS solution were prepared. During the ABTS solution preparation, ABTS was dissolved and ABTS^●+ was generated by reacting with K2S2O8 (2.4 mM final concentration) in a dark bottle at room temperature for 16–18 h. Next, the ABTS^●+ solution was diluted with PBS to an absorbance of 0.7 at 734 nm measured using a Tecan plate reader (Spark, Tecan, Austria). ABTS^●+ (990 µL) was added to the tested dye sample (10 µL) in a 96-well plate and incubated for 10 min at room temperature. The tested dye concentration was in the range from 0.01 to 1 mg/mL. Simultaneously, the negative control (XC) and the control of dye colour correction (XD) were incubated. The change in the absorbance of ABTS^●+ with the dye sample (XP) and controls were measured in the plate reader at 734 nm and the ABTS^●+ reduction rate (AR) was calculated according to the following equation: AR=(XC−(XP−XD)/XC)×100% All analyses allowing determination of antioxidative properties were performed in triplicate in room temperature 22 ± 3 °C. […] Trolox was used as positive controls for each technique.

[3] = test system: human normal colon epithelial cell line CCD-841 CoTr; assay: Cytotoxicity, MTT assay, colon epithelial cells; format: cell-based; settings: CCD-841, 24 h, read-out: IC50 Colon Epithelial Cells MTT
Protocol: (§2) Cell cultures: The research was conducted on human normal colon epithelial cell line CCD-841 CoTr (ACCT, No. CRL-1807) and human normal colon fibroblast cell line CCD-18Co (ATCC, No. CRL-1459) obtained from the American Type Culture Collection (ATCC, Manassas, VA, USA). The cells were grown in a mixture of DMEM and RPMI 1640 media (1:1) containing 10% (v/v) of foetal bovine serum (FBS) and antibiotics (100 U/mL penicillin and 100 μg/mL streptomycin) and kept in standard conditions (at 37 °C in humidified atmosphere of 5% CO2). For the MTT and LDH tests, cells at the density of 1 × 10^5 cells /mL were seeded on 96-well plates. […] MTT assay: This method is used to determine cell viability and proliferation. […] Then, to stop the reaction and dissolve the formazan crystals, 100 µL of a 10 % SDS solution in 0.01 N HCL was added. The following day, the absorbance was determined spectrophotometrically at 570 nm using a microplate reader (Spark, Tecan, Austria). Results obtained from three independent experiments were reported as cell viability (%) calculated according to the formula: cell viability (%) = (100 − Abssample × Abscontrol^−1) × 100% All analyses were performed in triplicate and presented as mean ± SD. The IC50 value was calculated by nonlinear regression using a curve fitting program in GraphPad Prism 5.0.

laccase (LAC) = settings: read-out: KM (Michaelis–Menten constant); 0.1 M sodium-tartrate buffer pH 4, 440 nm, Lineweaver–Burk
Source text: The reaction mixture was scanned to determine the λ max cha-racterizing the main reaction product od dye using a Cary 50 Bio spectrophotometer (Varian, Palo Alto, CA, USA).

[4] = test system: human normal colon fibroblast cell line CCD-18Co; assay: Cytotoxicity, MTT assay, fibroblasts; format: cell-based; settings: 24 h, read-out: IC50 Fibroblasts MTT
Protocol: as §2

[5] = Chemiluminescence assay (luminol, antioxidant); settings: concentration reducing 50% of radicals
Protocol: Chemiluminescence Assay: The assay of the antioxidant properties of the tested dyes was based on the measurement of luminol chemiluminescence induced by hydroxyl radicals in the Fe^2+-EDTA-H2O2-luminol system. […] Afterwards, the samples were placed in a Berthold–Lumat LB 9506 luminometer, and the solutions of reagents were added automatically as follows: 1.5 mM Fe^2+-EDTA (100 µL) and 4.4 mM H2O2 (100 µL). The chemiluminescence was measured with (I1) or without (I0) the addition of the tested dye. The inhibitory rate (IR) was calculated according to the following equation: IR(%)=(1−I1/Io)×100 All analyses allowing determination of antioxidative properties were performed in triplicate in room temperature 22 ± 3 °C. […] Trolox was used as positive controls for each technique.

DPPH assay (antioxidant) = settings: concentration reducing 50% of radicals
Protocol: DPPH assay: […] Then, 100 µL of the tested dye was added to a 96-well plate containing 100 µL of a freshly prepared DPPH solution in 95% ethanol. […] The mixture was incubated at room temperature for 20 min. The change in absorbance caused by the tested dyes (XP) and ultrapure water as a negative control (XC) was monitored at 515 nm using a multiplate reader (Spark, Tecan, Austria). Simultaneously, the absorbance of the dye at a wavelength of 515 nm was investigated as a control of the dye–colour correction (XD). The radical reduction rate (DR) was calculated according to the following equation: DR(%)=(XC−(XP−XD)/XC)×100% All analyses allowing determination of antioxidative properties were performed in triplicate in room temperature 22 ± 3 °C. […] Trolox was used as positive controls for each technique.

S. aureus ATCC 25923 = assay: MIC and MBC determination (CLSI protocol), S. aureus; format: cell-based; settings: Staphylococcus aureus, ATCC25923, read-out: MBC S. aureus
Protocol: (§3) The stock solutions (10 mg/mL) of the tested substances were prepared in distilled water and afterwards diluted to the appropriate concentration in Mueller–Hinton Bullion. In each well of a 96-well plate, 300 µL of the mixture was inoculated with 10 µL of the bacterial culture (final density~10^2 cfu/mL). […] Then, 10 µL of the suspension from each well was transferred to a fresh sterile medium and incubated for another 24 h at 37 °C. The lack of turbidity indicated bactericidal activity of the investigated substances and the MBC value was thus determined.

[6] = Cyclic voltammetry of the ANS substrate; format: physicochemical; settings: 1 mM substrate, 0.1 M sodium tartrate buffer pH 4.5
Protocol: All measurements were performed for the 1 mM substrate dissolved in 0.1 M sodium tartrate buffer at pH 4.5 in triplicate at room temperature 22 ± 3 °C. The potential was scanned with the scan speed of 50 mV/s from −400 to 1500 mV vs. Ag/AgCl/KClsat after holding the electrochemical system at the initial potential for 10 s.

[7] = test system: human normal colon fibroblast cell line CCD-18Co; assay: Cytotoxicity, LDH assay, fibroblasts; format: cell-based; settings: after 24 h
Protocol: as §1

[8] = Cytotoxicity regardless of assay method and cells used; format: cell-based; settings: human; regardless of the toxicity assay method and the cells used; read-out: IC50 (cytotoxicity), lowest value
Protocol: For the MTT and LDH tests, cells at the density of 1 × 10^5 cells /mL were seeded on 96-well plates. After 24 h incubation, the medium was replaced with a fresh one with 2% of FBS supplemented with ANS or not (control).
MTT assay: This method is used to determine cell viability and proliferation. It is based on the measurement of the oxidoreductive activity of mitochondria with the yellow dye 3-(4,5-dimethylthiazo-2-yl)-2,5-diphenyl-tetrazolium bromide (MTT) which is metabolised in living cells to purple formazan crystals. After 24 h incubation with the examined compounds, 25 µL of MTT (5 mg/mL) was introduced onto each well and incubated for 3 h. Then, to stop the reaction and dissolve the formazan crystals, 100 µL of a 10 % SDS solution in 0.01 N HCL was added. The following day, the absorbance was determined spectrophotometrically at 570 nm using a microplate reader (Spark, Tecan, Austria).
Results obtained from three independent experiments were reported as cell viability (%) calculated according to the formula: cell viability (%) = (100 − Abssample × Abscontrol^−1) × 100% […]

[9] = test system: S. epidermidis ATCC 14990; assay: MIC and MBC determination (CLSI protocol), S. epidermidis; format: cell-based; settings: Staphylococcus epidermidis, ATCC14990, read-out: MBC S. epidermidis
Protocol: as §3

O=S(=O)(O)c1cccc2cccc(Nc3ccccc3)c12 [ANS, 8-anilino-1-naphthalenesulfonic acid]
IC50 [1]: 382 µg/mL (≈ 1280 µM)
IC50 values (antioxidative potential) [2]: 0.027 to 153 µg/mL
EC50 (Vibrio fisheri): 19 µg/mL (≈ 63.5 µM)
IC50 ABTS (ABTS assay (antioxidant)): 0.027 µg/mL (≈ 0.0902 µM)
IC50 [3]: 322 µg/mL (≈ 1080 µM)
Km (laccase (LAC)): 435 µM
IC50 [4]: 295 µg/mL (≈ 985 µM)
IC50 Luminol [5]: 6 µg/mL (≈ 20 µM)
IC50 DPPH (DPPH assay (antioxidant)): 153 µg/mL (≈ 511 µM)
MBC (S. aureus ATCC 25923): 400 µg/mL (≈ 1340 µM)
Eo vs. NHE (oxidation potential) [6]: 0.768 V
IC50 [7]: 247 µg/mL (≈ 825 µM)
IC50 at 24 h [8]: ≥ 247 µg/mL
MBC [9]: 400 µg/mL (≈ 1340 µM)
